Assay results as given in patent publication US9926297B2, “Bicyclic AZA compounds as muscarinic M1 receptor and/or M4 receptor agonists” (Heptares Therapeutics Limited, priority 2014, dated 2018).

Tests used:
[1] = target: T1, human muscarinic M1 receptor (Homo sapiens, UniProt P11229); test: Alphascreen Surefire phospho-ERK1/2 functional assay, M1; assay type: cell-based; details: for EC50: phospho-ERK1/2, * = variable results, read-out: pEC50 M1 (converted); for Emax: CHO, read-out: % Emax cf. ACh, M1, CHO cells stably expressing human M1
T1 sequence (P11229 1-460): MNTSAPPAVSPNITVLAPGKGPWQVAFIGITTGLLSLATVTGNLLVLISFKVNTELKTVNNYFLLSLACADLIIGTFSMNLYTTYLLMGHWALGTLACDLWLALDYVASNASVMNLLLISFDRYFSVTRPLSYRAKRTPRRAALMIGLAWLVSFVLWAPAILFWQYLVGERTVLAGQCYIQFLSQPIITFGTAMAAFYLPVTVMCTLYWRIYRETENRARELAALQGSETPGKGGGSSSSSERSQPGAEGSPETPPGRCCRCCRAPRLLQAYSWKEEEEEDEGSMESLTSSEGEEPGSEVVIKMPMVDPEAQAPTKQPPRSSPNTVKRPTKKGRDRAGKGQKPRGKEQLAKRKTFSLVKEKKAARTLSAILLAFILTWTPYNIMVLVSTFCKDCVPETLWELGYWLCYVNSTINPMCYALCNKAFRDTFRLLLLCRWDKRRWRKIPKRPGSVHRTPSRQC

[2] = target: human muscarinic M3 receptor (Homo sapiens, UniProt P20309); test: Alphascreen Surefire phospho-ERK1/2 functional assay, M3; details: for Emax: CHO, read-out: % Emax cf. ACh, M3, CHO cells stably expressing human M3; for Emax / % Emax cf. ACh, M3: relative to ACh; for EC50: pEC50 M3, CHO cells stably expressing human M3, phospho-ERK1/2, * = variable results; for % Emax cf. ACh, M3: CHO cells stably expressing human M3
Protocol: CHO cells stably expressing the human muscarinic M1, M2, M3 or M4 receptor were plated (25K/well) onto 96-well tissue culture plates in MEM-alpha+10% dialysed FBS. Once adhered, cells were serum-starved overnight. Agonist stimulation was performed by the addition of 5 μL agonist to the cells for 5 min (37° C.). Media was removed and 50 μL of lysis buffer added. After 15 min, a 4 μL sample was transferred to 384-well plate and 7 μL of detection mixture added. Plates were incubated for 2 h with gentle agitation in the dark and then read on a PHERAstar plate reader.
pEC50 and Emax figures were calculated from the resulting data for each receptor subtype.

[3] = target: T2, human muscarinic M4 receptor (Homo sapiens, UniProt P08173); test: Alphascreen Surefire phospho-ERK1/2 functional assay, M4; assay type: cell-based; details: for EC50: phospho-ERK1/2, * = variable results, read-out: pEC50 M4 (converted); for Emax: CHO, read-out: % Emax cf. ACh, M4, CHO cells stably expressing human M4
T2 construct: expressed in transfected cells
T2 sequence (P08173 1-479): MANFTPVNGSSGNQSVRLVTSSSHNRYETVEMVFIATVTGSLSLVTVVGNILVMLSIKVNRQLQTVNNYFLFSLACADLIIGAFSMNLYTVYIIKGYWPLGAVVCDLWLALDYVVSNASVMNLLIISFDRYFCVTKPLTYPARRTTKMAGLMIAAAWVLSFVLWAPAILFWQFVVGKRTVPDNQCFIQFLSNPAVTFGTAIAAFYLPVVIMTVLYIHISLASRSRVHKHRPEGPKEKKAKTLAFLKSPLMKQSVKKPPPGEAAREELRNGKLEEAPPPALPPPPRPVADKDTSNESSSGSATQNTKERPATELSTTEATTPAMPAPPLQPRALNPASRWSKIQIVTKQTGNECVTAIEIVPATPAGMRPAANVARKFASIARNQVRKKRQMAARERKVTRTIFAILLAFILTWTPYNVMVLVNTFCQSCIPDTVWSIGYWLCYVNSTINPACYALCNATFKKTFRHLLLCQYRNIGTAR

[4] = target: T3, human muscarinic M2 receptor (Homo sapiens, UniProt P08172); test: Alphascreen Surefire phospho-ERK1/2 functional assay, M2; details: for Emax: CHO, read-out: % Emax cf. ACh, M2, CHO cells stably expressing human M2
T3 sequence (P08172 1-466): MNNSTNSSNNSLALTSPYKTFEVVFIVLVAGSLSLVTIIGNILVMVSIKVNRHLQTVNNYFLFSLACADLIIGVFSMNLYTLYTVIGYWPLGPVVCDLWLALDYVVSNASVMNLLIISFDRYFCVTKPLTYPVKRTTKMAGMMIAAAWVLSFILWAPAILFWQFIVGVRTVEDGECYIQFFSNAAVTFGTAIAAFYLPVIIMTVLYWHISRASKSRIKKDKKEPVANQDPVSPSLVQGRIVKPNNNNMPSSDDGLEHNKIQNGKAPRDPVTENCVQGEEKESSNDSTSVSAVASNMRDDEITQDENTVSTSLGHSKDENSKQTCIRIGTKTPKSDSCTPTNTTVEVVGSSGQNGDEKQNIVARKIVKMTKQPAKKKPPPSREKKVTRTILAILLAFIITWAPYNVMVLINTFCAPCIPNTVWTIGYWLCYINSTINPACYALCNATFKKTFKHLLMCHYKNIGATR

[5] = CHO cells stably expressing human M1
[6] = CHO cells stably expressing human M4

Chain of human muscarinic M3 receptor (P20309 whole entry): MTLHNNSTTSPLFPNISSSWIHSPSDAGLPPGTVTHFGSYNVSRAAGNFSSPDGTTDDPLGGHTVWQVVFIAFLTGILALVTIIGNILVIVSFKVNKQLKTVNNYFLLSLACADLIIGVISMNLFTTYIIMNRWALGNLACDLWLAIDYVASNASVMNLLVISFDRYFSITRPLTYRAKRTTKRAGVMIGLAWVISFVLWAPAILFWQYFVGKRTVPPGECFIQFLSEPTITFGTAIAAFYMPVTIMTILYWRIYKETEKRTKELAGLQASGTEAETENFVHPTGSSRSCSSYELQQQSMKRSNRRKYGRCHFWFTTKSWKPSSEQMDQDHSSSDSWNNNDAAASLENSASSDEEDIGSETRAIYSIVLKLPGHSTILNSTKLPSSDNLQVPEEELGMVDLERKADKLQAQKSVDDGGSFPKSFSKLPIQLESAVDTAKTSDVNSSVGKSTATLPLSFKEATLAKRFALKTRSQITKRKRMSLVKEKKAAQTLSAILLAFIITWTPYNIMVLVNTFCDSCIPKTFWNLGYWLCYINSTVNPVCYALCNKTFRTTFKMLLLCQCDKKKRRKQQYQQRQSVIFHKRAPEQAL

| SMILES | EC50 [1, 5] | Emax ([1]; relative to ACh) | Emax [2] | EC50 [2] | EC50 [3, 6] | Emax ([3]; relative to ACh) | EC50 [4] | Emax ([4]; relative to ACh) | % Emax cf. ACh, M3 [2] | % Emax cf. ACh, M1 ([1]; CHO cells stably expressing human M1, relative to ACh) | % Emax cf. ACh, M4 ([3]; CHO cells stably expressing human M4, relative to ACh) | pEC50 M2 ([4]; CHO cells stably expressing human M2, phospho-ERK1/2, * = variable results) | % Emax cf. ACh, M2 ([4]; CHO cells stably expressing human M2, relative to ACh) |
| --- | --- | --- | --- | --- | --- | --- | --- | --- | --- | --- | --- | --- | --- |
| CCOC(=O)N1CCC2(CC(N3CCC(N4CC(F)(F)C[C@@H]4C(=O)N(C)C)CC3)C2)C1 (single isomer, unassigned) [2-89 Isomer 2] | 6310 nM | 37% | 8% | > 20 µM | 200 nM | 102% | > 20 µM | 68% | – | – | – | – | – |
| CCOC(=O)N1CCC2(CC(N3CCC(N4CC(F)(F)C[C@@H]4C(N)=O)CC3)C2)C1 (single isomer, unassigned) [2-90 Isomer 2] | 158 nM | 54% | 1% | > 20 µM | 12.6 nM | 53% | > 20 µM | 4% | – | – | – | – | – |
| CCOC(=O)N1CCC2(CC(N3CCC(N4CC(F)(F)C[C@@H]4C(=O)NOC)CC3)C2)C1 (single isomer, unassigned) [2-91 Isomer 2] | 501 nM | 40% | 10% | > 20 µM | 79.4 nM | 67% | > 20 µM | 12% | – | – | – | – | – |
| CCOC(=O)N1CCC2(CC(N3CCC(N4CC(F)(F)C[C@@H]4C(=O)N(C)OC)CC3)C2)C1 (single isomer, unassigned) [2-92 Isomer 2] | 3160 nM | 50% | 5% | > 20 µM | 31.6 nM | 82% | > 20 µM | 2% | – | – | – | – | – |
| CCOC(=O)N1CCC2(CC(N3CCC(N4CCC[C@]4(C)C(=O)OC)CC3)C2)C1 (single isomer, unassigned) [2-95 Isomer 2] | > 20000 nM | 19% | 9% | > 20 µM | 63.1 nM | 49% | > 20 µM | 16% | – | – | – | – | – |
| CCOC(=O)N1CCC2(CC(N3CCC(N4CCCC45CCOC5=O)CC3)C2)C1 (single isomer, unassigned) [2-96 Isomer 2, ethyl 2-[4-(6-oxo-7-oxa-1-azaspiro[4.4]non-1-yl)piperidin-1-yl]-6-azaspiro[3.4]octane-6-carboxylate] | > 20000 nM | 2% | 5% | > 20 µM | 126 nM | 63% | > 20 µM | 1% | – | – | – | – | – |
| CCOC(=O)N1CCC2(CC(N3CCC(N4CSC[C@@H]4C(=O)OC)CC3)C2)C1 (single isomer, unassigned) [2-97 Isomer 2] | > 20000 nM | 5% | 3% | > 20 µM | 39.8 nM | 37% | > 20 µM | 3% | – | – | – | – | – |
| CCOC(=O)N1CCC2(CC(N3CCC(N4CCC(F)(F)C4)CC3)C2)C1 (single isomer, unassigned) [2-100 Isomer 2, ethyl 2-[4-(3,3-difluoropyrrolidin-1-yl)piperidin-1-yl]-6-azaspiro[3.4]octane-6-carboxylate] | > 20000 nM | 16% | 5% | > 20 µM | 200 nM | 55% | > 20 µM | 4% | – | – | – | – | – |
| CCOC(=O)N1CCC2(CC(N3CCC(N4CCC[C@@H]4CF)CC3)C2)C1 (single isomer, unassigned) [2-102 Isomer 2] | 5010 nM | 23% | 11% | > 20 µM | 316 nM | 45% | > 20 µM | 1% | – | – | – | – | – |
| CCOC(=O)N1CCC2(CC(N3CCC(N4CCC[C@@H]4C(F)F)CC3)C2)C1 (single isomer, unassigned) [2-103 Isomer 2] | 200 nM | 26% | 3% | > 20 µM | 20 nM | 100% | > 20 µM | 4% | – | – | – | – | – |
| CCOC(=O)N1CCC2(CC(N3CCC(N4CCC[C@@H]4C(F)(F)F)CC3)C2)C1 (single isomer, unassigned) [2-104 Isomer 2] | 79.4 nM | 102% | 8% | > 20 µM | 15.8 nM | 111% | > 20 µM | 8% | – | – | – | – | – |
| CCOC(=O)N1CCC2(CC(N3CCC(N4CC(F)(F)C[C@@H]4C)CC3)C2)C1 (single isomer, unassigned) [2-106 Isomer 2] | 126 nM | 97% | 5% | > 20 µM | 20 nM | 102% | > 20 µM | 10% | – | – | – | – | – |
| CCOC(=O)N1CCC2(CC(N3CCC(N4CC(F)(F)C[C@@H]4CO)CC3)C2)C1 (single isomer, unassigned) [2-107 Isomer 2] | 63.1 nM | – | 48% | > 20 µM | 6.31 nM | – | > 20 µM | – | – | – | – | – | – |
| CCOC(=O)N1CCC2(CC(N3CCC(N4CC(F)(F)C[C@@H]4C(C)O)CC3)C2)C1 (single isomer, unassigned) [2-109 Isomer 2] | 398 nM | 50% | – | 10 µM | 15.8 nM | 91% | > 20 µM | 9% | 26% | – | – | – | – |
| CCOC(=O)N1CCC2(CC(N3CCC(N4CC(F)(F)C[C@@H]4C(C)O)CC3)C2)C1 (single isomer, unassigned) [2-109 Isomer 4] | 316 nM | – | – | > 20 µM | 20 nM | – | – | – | 9% | 42% | 82% | < 4.7 | 15% |
| CCOC(=O)N1CCC2(CC(N3CCC(N4CCCC4=O)CC3)C2)C1 (single isomer, unassigned) [2-111 Isomer 2, ethyl 2-[4-(2-oxopyrrolidin-1-yl)piperidin-1-yl]-6-azaspiro[3.4]octane-6-carboxylate] | 501 nM | 31% | 0% | > 20 µM | 31.6 nM | 62% | > 20 µM | 1% | – | – | – | – | – |
| CCOC(=O)N1CCC2(CC(N3CCC(N4C(=O)CCC4(C)C)CC3)C2)C1 (single isomer, unassigned) [2-117 Isomer 2, ethyl 2-[4-(2,2-dimethyl-5-oxopyrrolidin-1-yl)piperidin-1-yl]-6-azaspiro[3.4]octane-6-carboxylate] | 6310 nM | 99% | 7% | > 20 µM | 63.1 nM | 96% | > 20 µM | 4% | – | – | – | – | – |
| CCOC(=O)N1CCC2(CC(N3CCC(N4C(=O)OC[C@@H]4C(C)C)CC3)C2)C1 (single isomer, unassigned) [2-123 Isomer 2] | 316 nM | 114% | 29% | > 20 µM | 316 nM | 93% | > 20 µM | 8% | – | – | – | – | – |
